From US11767322B2 (BRISTOL-MYERS SQUIBB COMPANY, priority 2020, dated 2023) come the findings set out here.

pIC50: −log10 of the molar value. Like-named read-outs stand apart in the source and are kept apart here.

Test [1] has as its system MLKL phosphorylation in HT29-L23 human colorectal adenocarcinoma cells. Nature of the test: MLKL phosphorylation high-content assay. The class given is cell-based.
The target of test [2] is T1, His-GST-TVMV-hRIPK1(1-324) (Homo sapiens, UniProt Q13546).
T1 construct: The coding region of human RIPK1(1-324) flanked by NdeI site at 5′ end; made in house; host or cells: Spodoptera frugiperda Sf9 insect cells (baculovirus, Bac-to-Bac)
T1 sequence (Q13546 1-324): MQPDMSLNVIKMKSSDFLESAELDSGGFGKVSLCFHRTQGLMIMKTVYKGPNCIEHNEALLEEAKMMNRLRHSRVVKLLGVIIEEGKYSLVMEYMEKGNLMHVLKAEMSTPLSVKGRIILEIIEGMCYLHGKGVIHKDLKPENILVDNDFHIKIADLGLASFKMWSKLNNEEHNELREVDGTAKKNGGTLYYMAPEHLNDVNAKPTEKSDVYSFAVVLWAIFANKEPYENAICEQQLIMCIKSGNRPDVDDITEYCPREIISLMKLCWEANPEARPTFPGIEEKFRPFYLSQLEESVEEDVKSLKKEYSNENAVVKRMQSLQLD
In words: biochemical. Format: binding.

[3] abbreviates: read-out: pMLKL IC50, HT29-L23 cells, necroptosis induced with TNFα, SMAC mimetic and Z-VAD, 6 h, maximal inhibition defined by Nec1s.
Setting [4] is: HTRF probe displacement, 1 h at rt, read-out: RIPK1 IC50.
[5] abbreviates: Homo sapiens, 6 h, read-out: pMLKL IC50, HT29-L23 cells, necroptosis induced with TNFα, SMAC mimetic and Z-VAD, 6 h, maximal inhibition defined by Nec1s.
[6] abbreviates: Table 22, compounds of the present invention, read-out: RPIK1 IC50.

As a reminder, the pIC50 is −log10 of the IC50, conventionally taken in molar units. For `[2H]C([2H])([2H])OC(c1ccc(F)cc1)C(F)(F)CNC(=O)c1c(C)ccc(-c2ccn3nc(N)nc3c2)c1F` (single isomer, unassigned) [Example 236, 3-(2-amino-[1,2,4]triazolo[1,5-a]pyridin-7-yl)-N-(2,2-difluoro-3-(4-fluorophenyl)-3-(methoxy-d3)propyl)-2-fluoro-6-methylbenzamide], the pIC50 in test [1] (setting [3]) was 9.05; in test [2] (setting [4]) it was 8.47.

For the compound `[2H]C([2H])(CC([2H])(O)c1ccc(Cl)cc1)NC(=O)c1c(Cl)ccc(-c2ccn3nc(N)nc3c2)c1F` (single isomer, unassigned) [Example 76, 3-(2-amino-[1,2,4]triazolo[1,5-a]pyridin-7-yl)-6-chloro-N-(3-(4-chlorophenyl)-3-hydroxypropyl-1,1,3-d3)-2-fluorobenzamide], the pIC50 in test [1] (setting [3]) is 8.48; in test [2] (setting [4]), 8.82.

Take `Nc1nc2cc(-c3ccc(Cl)c(C(=O)NCC(F)(F)C(O)c4cccc(C(F)(F)F)n4)c3F)ccn2n1` (single isomer, unassigned) [Example 255, 3-(2-amino-[1,2,4]triazolo[1,5-a]pyridin-7-yl)-6-chloro-N-(2,2-difluoro-3-hydroxy-3-(6-(trifluoromethyl)pyridin-2-yl)propyl)-2-fluorobenzamide]: the pIC50 in test [1] (setting [3]) is 7.10; in test [2] (setting [4]), 7.77.

`Cc1ccc(-c2ccn3nc(N)nc3c2)c(F)c1C(=O)NCC(F)(F)C(O)(c1ccc(F)cc1)C(F)F` (stereo not shown) [Example 274, 3-(2-amino-[1,2,4]triazolo[1,5-a]pyridin-7-yl)-2-fluoro-6-methyl-N-(2,2,4,4-tetrafluoro-3-(4-fluorophenyl)-3-hydroxybutyl)benzamide]: the pIC50 in test [1] (setting [5]) is 9.15; in test [2] (setting [4]), 7.72.

As for `[2H]C(O)(c1ccc(C(F)F)cc1)C(F)(F)CNC(=O)c1c(Cl)ccc(-c2ccn3nc(N)nc3c2)c1F` (single isomer, unassigned) [Example 312, 3-(2-amino-[1,2,4]triazolo[1,5-a]pyridin-7-yl)-6-chloro-N-(3-(4-(difluoromethyl)phenyl)-2,2-difluoro-3-hydroxypropyl-3-d)-2-fluorobenzamide], the pIC50 in test [1] (setting [3]) was 9.05; in test [2] (setting [4]), 8.24.

In the case of `Cc1ncc(-c2ccn3nc(N)nc3c2)cc1C(=O)NCC(C)(O)Cc1ccc(F)cc1` (stereo not shown) [Compound 421 from WO2018/148626, reference compound], the pIC50 in test [1] (Homo sapiens, Table 23, representative compounds from WO2018/148626, read-out: pMLKL IC50) was 6.50; in test [2] (Table 23, representative compounds from WO2018/148626, read-out: RIPK1 IC50), 6.96.

For `Cc1ccc(-c2ccn3nc(N)nc3c2)c(F)c1C(=O)NCCC(O)c1ccc(F)cc1` (stereo not shown) [Example 49, 3-(2-amino-[1,2,4]triazolo[1,5-a]pyridin-7-yl)-2-fluoro-N-(3-(4-fluorophenyl)-3-hydroxypropyl)-6-methylbenzamide], the pIC50 in test [1] (setting [5]) was 8.59; in test [1] (Homo sapiens, read-out: pMLKL IC50, Table 22, compounds of the present invention), 8.59; in test [2] (setting [4]), 8.60; in test [2] (setting [6]) it was 8.60.

As for `Nc1nc2cc(-c3ccc(OC(F)F)c(C(=O)NCC(F)(F)[C@@H](O)c4ccc(F)cc4)c3F)ccn2n1` [Example 306, (S)-3-(2-amino-[1,2,4]triazolo[1,5-a]pyridin-7-yl)-N-(2,2-difluoro-3-(4-fluorophenyl)-3-hydroxypropyl)-6-(difluoromethoxy)-2-fluorobenzamide], the figures for the pIC50 in test [1] (setting [5]) and in test [2] (setting [4]) were 8.38 and 7.96, respectively.

For the compound `[2H]C([2H])([2H])OC(c1ccc(F)cc1)C(F)(F)CNC(=O)c1c(C)ccc(-c2ccn3nc(N)nc3c2)c1F` (single isomer, unassigned) [Example 235, 3-(2-amino-[1,2,4]triazolo[1,5-a]pyridin-7-yl)-N-(2,2-difluoro-3-(4-fluorophenyl)-3-(methoxy-d3)propyl)-2-fluoro-6-methylbenzamide], the values for the pIC50 in test [1] (setting [5]) and in test [2] (setting [4]) were 9.22 and 8.37, respectively.

For the compound `Nc1nc2cc(-c3ccc(Cl)c(C(=O)NCCC(O)c4ccc(F)cc4)c3F)ccn2n1` (single isomer, unassigned) [Example 80, 3-(2-amino-[1,2,4]triazolo[1,5-a]pyridin-7-yl)-6-chloro-2-fluoro-N-(3-(4-fluorophenyl)-3-hydroxypropyl)benzamide], the pIC50 in test [1] (setting [5]) was 7.57; in test [2] (setting [4]), 8.05.

Take `Cc1ccc(-c2ccn3nc(N)nc3c2)c(F)c1C(=O)NCC(O)C(F)(F)c1ccc(F)cc1` (single isomer, unassigned) [Example 291, 3-(2-amino-[1,2,4]triazolo[1,5-a]pyridin-7-yl)-N-(3,3-difluoro-3-(4-fluorophenyl)-2-hydroxypropyl)-2-fluoro-6-methylbenzamide]: the pIC50 in test [1] (setting [3]) was 8.62; in test [1] (read-out: pMLKL IC50, Table 22, compounds of the present invention), 8.62; in test [2] (setting [4]), 9.00; in test [2] (setting [6]) it was 9.00.

Consider `[2H]C([2H])([2H])c1ccc(C(O)C(F)(F)CNC(=O)c2c(C([2H])([2H])[2H])ccc(-c3ccn4nc(N)nc4c3)c2F)cc1` (single isomer, unassigned) [Example 200, 3-(2-amino-[1,2,4]triazolo[1,5-a]pyridin-7-yl)-N-(2,2-difluoro-3-hydroxy-3-(4-(methyl-d3)phenyl)propyl)-2-fluoro-6-(methyl-d3)benzamide], for which the pIC50 is 9.10 in test [1] (setting [5]) and 8.33 in test [2] (setting [4]).

Regarding `Cc1cccc(C(O)C(F)(F)CNC(=O)c2c(Cl)ccc(-c3ccn4nc(N)nc4c3)c2F)c1` (stereo not shown) [Example 175, 3-(2-amino-[1,2,4]triazolo[1,5-a]pyridin-7-yl)-6-chloro-N-(2,2-difluoro-3-hydroxy-3-(m-tolyl)propyl)-2-fluorobenzamide], the results for the pIC50 in test [1] (setting [3]) and in test [2] (setting [4]) were 8.11 and 8.57, respectively.

On to `Nc1nc2cc(-c3ccc(Cl)c(C(=O)NCC(F)(F)C(O)c4cccc(F)c4)c3F)ccn2n1` (single isomer, unassigned) [Example 168, 3-{2-amino-[1,2,4]triazolo[1,5-a]pyridin-7-yl}-6-chloro-N-[2,2-difluoro-3-(3-fluorophenyl)-3-hydroxypropyl]-2-fluorobenzamide], for which the pIC50 in test [1] (setting [3]) was 8.96; in test [2] (setting [4]), 9.52.

`Nc1nc2cc(-c3ccc(Cl)c(C(=O)NCC(F)(F)C(O)c4ccc(F)cc4F)c3F)ccn2n1` (single isomer, unassigned) [Example 179, 3-(2-amino-[1,2,4]triazolo[1,5-a]pyridin-7-yl)-6-chloro-N-(3-(2,4-difluorophenyl)-2,2-difluoro-3-hydroxypropyl)-2-fluorobenzamide]: the values for the pIC50 in test [1] (setting [3]) and in test [2] (setting [4]) were 8.43 and 9.52, respectively.

Take `Nc1nc2cc(-c3ccc(Cl)c(C(=O)NCC(F)(F)C(O)c4ccc(Cl)cc4F)c3F)ccn2n1` (single isomer, unassigned) [Example 162, 3-(2-amino-[1,2,4]triazolo[1,5-a]pyridin-7-yl)-6-chloro-N-(3-(4-chloro-2-fluorophenyl)-2,2-difluoro-3-hydroxypropyl)-2-fluorobenzamide]: the pIC50 in test [1] (setting [3]) was 8.51; in test [2] (setting [4]), 8.80.

`Cc1ccc(-c2ccn3nc(N)nc3c2C)c(F)c1C(=O)NCC[C@H](O)c1ccc(Cl)cc1` [compound 134]: the pIC50 in test [1] (setting [5]) is 8.82; in test [2] (setting [4]), 8.54.

As for `COC(c1ccc(F)cc1)C(F)(F)CNC(=O)c1c(C)ccc(-c2ccn3nc(N)nc3c2)c1F` (single isomer, unassigned) [Example 234, 3-(2-amino-[1,2,4]triazolo[1,5-a]pyridin-7-yl)-N-(2,2-difluoro-3-(4-fluorophenyl)-3-methoxypropyl)-2-fluoro-6-methylbenzamide], the results for the pIC50 in test [1] (setting [3]) and in test [2] (setting [4]) were 8.52 and 8.08, respectively.

For the compound `Cc1ccc(C(O)C(F)(F)CNC(=O)c2c(Cl)ccc(-c3ccn4nc(N)nc4c3)c2F)c(F)c1` (stereo not shown) [Example 183, 3-(2-amino-[1,2,4]triazolo[1,5-a]pyridin-7-yl)-6-chloro-N-(2,2-difluoro-3-(2-fluoro-4-methylphenyl)-3-hydroxypropyl)-2-fluorobenzamide], the figures for the pIC50 in test [1] (setting [3]) and in test [2] (setting [4]) were 9.00 and 9.40, respectively.

For the compound `[2H]C([2H])([2H])c1ccc(-c2ccn3nc(N)nc3c2)c(F)c1C(=O)NCC(F)(F)C(C)(O)c1ccc(F)cc1` (single isomer, unassigned) [Example 241, 3-(2-amino-[1,2,4]triazolo[1,5-a]pyridin-7-yl)-N-(2,2-difluoro-3-(4-fluorophenyl)-3-hydroxybutyl)-2-fluoro-6-(methyl-d3)benzamide], the pIC50 in test [1] (setting [5]) is 8.92; in test [2] (setting [4]) it was 8.00.

In the case of `Cc1ccc(-c2ccn3nc(N)nc3c2)c(F)c1C(=O)NCC(C)(F)C(O)c1ccc(F)cc1` (single isomer, unassigned) [Example 205, 3-(2-amino-[1,2,4]triazolo[1,5-a]pyridin-7-yl)-2-fluoro-N-(2-fluoro-3-(4-fluorophenyl)-3-hydroxy-2-methylpropyl)-6-methylbenzamide], the pIC50 in test [1] (setting [3]) is 8.29; in test [2] (setting [4]), 8.21.
